What was measured:
Format in all cases: in vivo
Lolium perenne (LOLPE) [1] = experiment: B2 Post-emergence herbicidal activity; conditions: post-emergence application, Rate 1000 g/ha, evaluated after 13 days, Test 2b
Method in brief: (§1)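 Visual damage score (0 = none, 5 = total) taken 13 days after treatment. Seedlings had been cultivated 8 days in pots of standard soil before being sprayed with an aqueous solution of compound in acetone/water (50:50) containing 0.5% Tween 20.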

[2] = tested on: Echinochloa crus-galli (ECHCG); experiment: B1 Pre-emergence herbicidal activity; conditions: pre-emergence application, Rate 1000 g/ha, evaluated after 13 days, Test 1b
Method in brief: (§2)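 Damage was rated visually on a 0–5 scale (0 no damage, 5 total damage) 13 days after treatment. Soil-sown seeds had been sprayed one day after sowing with an aqueous acetone/water (50:50) solution containing 0.5% Tween 20, then kept in a glasshouse at 24/16 °C, 14 h light, 65% humidity.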

[3] = tested on: Echinochloa crus-galli (ECHCG); experiment: B2 Post-emergence herbicidal activity; conditions: post-emergence application, Rate 1000 g/ha, evaluated after 13 days, Test 2b
Method in brief: as §1

[4] = tested on: Amaranthus retroflexus (AMARE); experiment: B2 Post-emergence herbicidal activity; conditions: post-emergence application, Rate 1000 g/ha, evaluated after 13 days, Test 2b
Method in brief: as §1

[5] = tested on: Abutilon theophrasti (ABUTH); experiment: B2 Post-emergence herbicidal activity; conditions: post-emergence application, Rate 1000 g/ha, evaluated after 13 days, Test 2b
Method in brief: as §1

Setaria fabenr (SETFA) = experiment: B1 Pre-emergence herbicidal activity; conditions: pre-emergence application, Rate 1000 g/ha, evaluated after 13 days, Test 1b
Method in brief: as §2

[6] = tested on: Amaranthus retroflexus (AMARE); experiment: B1 Pre-emergence herbicidal activity; parameters: key: 5=total damage to plant; 0=no damage to plant; conditions: pre-emergence application, Rate 1000 g/ha, evaluated after 13 days, Test 1b
Method in brief: as §2

Zea Mays (ZEAMX) [7] = experiment: B1 Pre-emergence herbicidal activity; parameters: key: 5=total damage to plant; 0=no damage to plant; conditions: pre-emergence application, Rate 1000 g/ha, evaluated after 13 days, Test 1b
Method in brief: as §2

Lolium perenne (LOLPE) [8] = experiment: B1 Pre-emergence herbicidal activity; conditions: pre-emergence application, Rate 1000 g/ha, evaluated after 13 days, Test 1b
Method in brief: as §2

[9] = tested on: Abutilon theophrasti (ABUTH); experiment: B1 Pre-emergence herbicidal activity; conditions: pre-emergence application, Rate 1000 g/ha, evaluated after 13 days, Test 1b
Method: Seeds of a variety of test species were sown in standard soil in pots: Triticum aestivium (TRZAW), Avena fatua (AVEFA), Alopecurus myosuroides (ALOMY), Echinochloa crus-galli (ECHCG), Lolium perenne (LOLPE), Zea Mays (ZEAMX), Abutilon theophrasti (ABUTH), Amaranthus retroflexus (AMARE) and Setaria fabenr (SETFA). After cultivation for one day (pre-emergence) under controlled conditions in a glasshouse (at 24/16° C., day/night; 14 hours light; 65% humidity), the plants were sprayed with an aqueous spray solution derived from the formulation of the technical active ingredient in acetone I water (50:50) solution containing 0.5% Tween 20 (polyoxyethelyene sorbitan monolaurate, CAS RN 9005-64-5). The test plants were then grown in a glasshouse under controlled conditions (at 24/16° C., day/night; 14 hours light; 65% humidity) and watered twice daily. After 13 days, the test was evaluated (5=total damage to plant; 0=no damage to plant).

Setaria fabenri (SETFA) = experiment: B2 Post-emergence herbicidal activity; parameters: key: 5=total damage to plant; 0=no damage to plant; conditions: post-emergence application, Rate 1000 g/ha, evaluated after 13 days, Test 2b
Method in brief: as §1

Zea Mays (ZEAMX) [10] = experiment: B2 Post-emergence herbicidal activity; parameters: key: 5=total damage to plant; 0=no damage to plant; conditions: post-emergence application, Rate 1000 g/ha, evaluated after 13 days, Test 2b
Method in brief: as §1

Structure (SMILES) | LOLPE damage score (0-5) (Lolium perenne (LOLPE) [1]) | ECHCG damage score (0-5) [2] | ECHCG damage score (0-5) [3] | AMARE damage score (0-5) [4] | ABUTH damage score (0-5) [5] | SETFA damage score (0-5) (Setaria fabenr (SETFA)) | AMARE damage score (0-5) [6] | ZEAMX damage score (0-5) (Zea Mays (ZEAMX) [7]) | LOLPE damage score (0-5) (Lolium perenne (LOLPE) [8]) | ABUTH damage score (0-5) [9] | SETFA damage score (0-5) (Setaria fabenri (SETFA)) | ZEAMX damage score (0-5) (Zea Mays (ZEAMX) [10])
CC(=O)Nc1ccc(-c2cncc(F)c2)nc1C(F)(F)F [Compound C9, N-[6-(5-fluoro-3-pyridyl)-2-(trifluoromethyl)-3-pyridyl]acetamide] | 3 | 3 | 4 | 2 | 2 | 4 | 2 | 5 | 2 | 1 | 5 | 5
CC(C)C(=O)Nc1ccc(-c2cncc(F)c2)nc1C(F)(F)F [Compound C10, N-[6-(5-fluoro-3-pyridyl)-2-(trifluoromethyl)-3-pyridyl]-2-methyl-propanamide] | 3 | 4 | 4 | 1 | 1 | 4 | 0 | 5 | 2 | 1 | 4 | 5

Source: patent US11230538B2, “Herbicides” (SYNGENTA PARTICIPATIONS AG, priority 2016, dated 2022)
